The subject of one assay is HT-29 Colon. Kind of assay: In vitro cytotoxicity assay (MTS), HT-29. It is filed as cell-based. The settings on record: HT-29 human colon tumor cell line, MTS assay 3–5 days; read-out: Growth-Inhibitory Activity IC50 HT-29 Colon. As for the experimental part: (§1) b.) In vitro Cytotoxicity Assay. 96-Well tissue culture cluster plates were seeded with 100 μL of cell suspension (5×10^3 cells/mL), and incubated overnight for cell anchorage and acclimation. Cells were propagated under sterile conditions in RPMI 1640 or DMEM with 10% fetal bovine serum, 2 mM L-glutamine, and sodium bicarbonate (complete medium), and incubated at 37° C. The test compounds were prepared in DMSO and then diluted in complete media. A range of eight concentrations was used for each test drug to establish cytotoxicity, with eight replicates for each concentration. All dosing was conducted using a Biomek 2000 robotic liquid handler. The plates were incubated at 37° C. with 5% CO2 and 95% relative humidity. The data were analyzed for cytotoxicity using the MTS assay 3–5 days (depending upon the growth rate of the cell lines) after commencement of treatment.
(§2) c.) MTS Assay. A solution of 40 μL of MTS/PES solution (purchased from Promega Corporation) was added to each well, and incubated for one to four hours. The absorbance of formazan in each monolayer was measured at 490 nm on a Coulter microplate reader. The data were processed in a spreadsheet program to provide a dose-response curve, allowing determination of the IC50.
(Tetrazolium assays rely on reduction of a dye to a coloured formazan, in cell work by metabolically active cells.)

The target of a further assay is T1, Human Topoisomerase I (Homo sapiens, UniProt P11387).
T1 sequence (P11387 1-765): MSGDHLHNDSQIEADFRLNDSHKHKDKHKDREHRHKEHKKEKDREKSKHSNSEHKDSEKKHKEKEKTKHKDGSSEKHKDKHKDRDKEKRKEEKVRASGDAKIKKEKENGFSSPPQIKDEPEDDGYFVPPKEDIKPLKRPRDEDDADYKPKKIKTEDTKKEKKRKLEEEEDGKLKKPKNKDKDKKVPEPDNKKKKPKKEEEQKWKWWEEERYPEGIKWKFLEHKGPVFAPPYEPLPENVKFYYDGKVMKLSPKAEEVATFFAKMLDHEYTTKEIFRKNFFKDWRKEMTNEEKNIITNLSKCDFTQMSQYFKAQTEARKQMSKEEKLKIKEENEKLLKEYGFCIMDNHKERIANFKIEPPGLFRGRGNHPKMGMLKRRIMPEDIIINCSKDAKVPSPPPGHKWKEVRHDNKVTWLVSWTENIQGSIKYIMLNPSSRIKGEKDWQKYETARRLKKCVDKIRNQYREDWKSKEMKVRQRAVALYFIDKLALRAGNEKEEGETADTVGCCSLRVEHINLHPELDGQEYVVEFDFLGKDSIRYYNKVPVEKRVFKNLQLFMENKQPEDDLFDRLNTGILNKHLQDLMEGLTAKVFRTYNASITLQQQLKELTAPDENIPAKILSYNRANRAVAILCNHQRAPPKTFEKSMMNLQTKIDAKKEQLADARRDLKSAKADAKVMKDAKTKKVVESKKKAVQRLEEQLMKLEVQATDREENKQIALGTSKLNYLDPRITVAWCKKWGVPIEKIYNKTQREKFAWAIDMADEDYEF
Kind of assay: Topoisomerase I assay (pHOT1 supercoiled DNA, agarose gel). In kind it is biochemical. The settings on record: supercoiled DNA band density, 37° C., 30 minutes; read-out: Poisoning of Human Topoisomerase I IC50. As for the experimental part:
a.) Topoisomerase I assay. Reaction buffer (10.3 μL H2O, 2.0 μL 10×buffer, 1.5 μL […] MgCl2, and 3.2 μL 500 mM KCl) was prepared and kept on ice. 10×Buffer was prepared by mixing 2 mL 2M Tris pH 7.5, 15.3 μL 10% DTT, 100 μL 0.5 M EDTA, 75 μL 20 mg/mL BSA, and […]. Test poisons were prepared in DMSO at such concentrations that the final incubation mixture was 5% DMSO. DNA mix was prepared by dissolving […] of pHOT1 DNA solution (0.25 μg/μL) with 715 μL reaction buffer. Topo I mix was prepared by mixing 14 μL of Topo I solution (2 units/μL) with 266 μL of reaction buffer. Proteinase K solution was prepared fresh as 10 mg/mL in 1% SDS. Gel loading buffer was prepared by dissolving 1 mg bromophenol blue in 100 μL H2O, then adding 900 μL 50% glycerol.
The assay was conducted as follows. DNA mix (14 μL) was added to sample tubes containing 1 μL of test poison solution and stored on ice. Next, 5 μL of Topo I mix was added, the solution was mixed with the pipettor, then incubated with gentle rocking in a 37° C. water bath for 30 minutes. The reactions were stopped via addition of 2 μL of proteinase K solution, and incubation was continued for another 30 minutes, then placed on ice. 2.2 μL of 5 M NaCl and 75 μL of EtOH were added to the tubes, the tubes were vortexed briefly, then placed on dry ice for 1 hour. The DNA was pelleted by centrifugation at 16,000×g for 10 minutes at 4° C. EtOH was removed from each tube using a gel loading pipette tip, and the DNA pellet was resuspended in 18 μL of reaction buffer and 2 μL of gel loading buffer. The samples were vortexed briefly, then spun for 15 seconds in a micro-centrifuge to force all the liquid to the bottom of the tubes. The samples were loaded onto a 1% agarose gel made with 1×TBE containing 2 μg/mL chloroquine. The gels were run at 35 V for 15 hours in 1×TBE. Gels were stained with 0.5 μg/mL ethidium bromide in 1×TBE for 1 hour, then destained for 30 minutes in H2O. Gels were photographed with a digital camera, and the digitized images analyzed using NIH software. IC50 values were determined by comparing supercoiled DNA band density (negative controls containing 5 μL reaction buffer in place of Topo I mix) with the supercoiled DNA bands remaining in the test samples.

In the next assay the test system is OVCAR-3 Ovarian. Kind of assay: In vitro cytotoxicity assay (MTS), OVCAR-3. It is filed as cell-based. Particulars: OVCAR-3 human ovarian tumor cell line, MTS assay 3–5 days; read-out: Growth-Inhibitory Activity IC50 OVCAR-3 Ovarian. As for the experimental part:
as §1, §2

Another assay has as its system DU-145 Prostate. In words: In vitro cytotoxicity assay (MTS), DU-145. In kind it is cell-based. The settings on record: DU-145 human prostate tumor cell line, MTS assay 3–5 days; read-out: Growth-Inhibitory Activity IC50 DU-145 Prostate. The protocol: as §1, §2

Broadly, the IC50 is the concentration at which inhibition is half-maximal.

Molecules are shown by their SMILES.

Consider `CC1(C)Oc2cc3[nH]c4c(c5c(c6c7cc(O)ccc7n(C7OC(CO)C(O)C(O)C7O)c46)C(=O)N(CO)C5=O)c3cc2O1` [compound 23, 2,3-isopropylenedioxy-6-hydroxymethyl-9-hydroxy-12-(β-D-glucopyranosyl)-6,7,12,13-tetrahydroindolo[2,3-a]pyrrolo[3,4-c]carbazole-5,7-dione], for which the IC50 in the assay on HT-29 Colon was > 10000 nM; on Human Topoisomerase I, 130000 nM; with OVCAR-3 Ovarian, 43 nM; in the assay on DU-145 Prostate, 3520 nM.

As to `O=C1NC(=O)c2c1c1c3cc(O)ccc3[nH]c1c1c2c2cc3c(cc2n1[C@@H]1O[C@H](CO)[C@@H](O)[C@H](O)[C@H]1O)OCO3` [IIb, 2,3-methylenedioxy-9-hydroxy-13-(β-D-glucopyranosyl)-6,7,12,13-tetrahydroindolo[2,3-a]pyrrolo[3,4-c]carbazole-5,7-dione], the 50% inhibitory concentration (IC50) on Human Topoisomerase I is > 400000 nM.

For `O=C1NC(=O)c2c1c1c3cc(O)ccc3[nH]c1c1c2c2cc(O)ccc2n1[C@@H]1O[C@H](CO)[C@@H](O)[C@H](O)[C@H]1O` [ALS-007, 3,9-dihydroxy-12-(β-D-glucopyranosyl)-6,7,12,13-tetrahydroindolo[2,3-a]pyrrolo[3,4-c]carbazole-5,7-dione, reference compound], the IC50 in the assay with HT-29 Colon is 9960 nM; at Human Topoisomerase I, 20900 nM; in the assay with OVCAR-3 Ovarian it was < 10 nM; with DU-145 Prostate, 338 nM.

For the compound `O=C1NC(=O)c2c1c1c3cc4c(cc3[nH]c1c1c2c2cc(O)ccc2n1[C@@H]1O[C@H](CO)[C@@H](O)[C@H](O)[C@H]1O)OCCO4` [Ia, 2,3-ethylenedioxy-9-hydroxy-12-(β-D-glucopyranosyl)-6,7,12,13-tetrahydroindolo[2,3-a]pyrrolo[3,4-c]carbazole-5,7-dione], the IC50 in the assay on HT-29 Colon is > 10000 nM; at Human Topoisomerase I it was 5400 nM; with OVCAR-3 Ovarian, < 10 nM; in the assay on DU-145 Prostate it was 845 nM.

With `O=C1c2c(c3c4cc(O)ccc4n(C4OC(CO)C(O)C(O)C4O)c3c3[nH]c4cc5c(cc4c23)OCCO5)C(=O)N1CO` [compound 9, 2,3-ethylenedioxy-6-hydroxymethyl-9-hydroxy-12-(β-D-glucopyranosyl)-6,7,12,13-tetrahydroindolo[2,3-a]pyrrolo[3,4c]carbazole-5,7-dione], the IC50 is > 10000 nM in the assay with HT-29 Colon, 3900 nM at Human Topoisomerase I, < 10 nM with OVCAR-3 Ovarian and 718 nM in the assay on DU-145 Prostate.

Regarding `CC[C@@]1(O)C(=O)OCc2c1cc1n(c2=O)Cc2cc3c(CN(C)C)c(O)ccc3nc2-1` [Topotecan, reference compound], the figures for the IC50 with HT-29 Colon, in the assay with OVCAR-3 Ovarian and in the assay on DU-145 Prostate were 533 nM, < 3 nM and 30 nM, respectively.

Take `CC1(C)Oc2cc3[nH]c4c(c5c(c6c7cc(O)ccc7n(C7OC(CO)C(O)C(O)C7O)c46)C(=O)NC5=O)c3cc2O1` [Ic, 2,3-isopropylenedioxy-9-hydroxy-12-(β-D-glucopyranosyl)-6,7,12,13-tetrahydroindolo[2,3-a]pyrrolo[3,4-c]carbazole-5,7-dione]: the concentration for half-maximal inhibition (IC50) with HT-29 Colon is > 10000 nM; on Human Topoisomerase I, 8100 nM; with OVCAR-3 Ovarian, 36 nM; with DU-145 Prostate, 2360 nM.

`O=C1NC(=O)c2c1c1c3cc(O)ccc3[nH]c1c1c2c2cc3c(cc2n1[C@@H]1O[C@H](CO)[C@@H](O)[C@H](O)[C@H]1O)OCCO3` [IIa, 2,3-ethylenedioxy-9-hydroxy-13-(β-D-glucopyranosyl)-6,7,12,13-tetrahydroindolo[2,3-a]pyrrolo[3,4-c]carbazole-5,7-dione]: the concentration for half-maximal inhibition (IC50) at Human Topoisomerase I was > 400000 nM.

As for `O=C1NC(=O)c2c1c1c3cc4c(cc3[nH]c1c1c2c2cc(O)ccc2n1[C@@H]1O[C@H](CO)[C@@H](O)[C@H](O)[C@H]1O)OCO4` [Ib, 2,3-methylenedioxy-9-hydroxy-12-(β-D-glucopyranosyl)-6,7,12,13-tetrahydroindolo[2,3-a]pyrrolo[3,4-c]carbazole-5,7-dione], the 50% inhibitory concentration (IC50) with HT-29 Colon is > 10000 nM; on Human Topoisomerase I, 3600 nM; in the assay on OVCAR-3 Ovarian it was < 10 nM; in the assay on DU-145 Prostate, 460 nM.

Consider `O=C1c2c(c3c4cc(O)ccc4n([C@@H]4O[C@H](CO)[C@@H](O)[C@H](O)[C@H]4O)c3c3[nH]c4cc5c(cc4c23)OCO5)C(=O)N1CO` [compound 16, 2,3-methylenedioxy-6-hydroxymethyl-9-hydroxy-12-(β-D-glucopyranosyl)-6,7,12,13-tetrahydroindolo[2,3-a]pyrrolo[3,4-c]carbazole-5,7-dione], for which the IC50 in the assay with HT-29 Colon is > 10000 nM; on Human Topoisomerase I, 3600 nM; with OVCAR-3 Ovarian, < 10 nM; in the assay with DU-145 Prostate it was 549 nM.

Values taken from patent US7122526B2, “Indolocarbazole anticancer agents and methods of using same” (Nanosphere, Inc., priority 2000, dated 2006).
